Source: article PMC10597453, “Novel inhibitors that target bacterial virulence identified via HTS against intra-macrophage survival of Shigella flexneri” (mSphere, 2023)
pIC50: −log10 of the molar value. Values after ≈ are worked out from the molar mass of the structure shown. Read-outs that look alike come from different tables or passages of the source.

What was measured:
[1] = system: Shigella propagation in Caco2 cells; assay: Inhibition of Shigella propagation in Caco2 cells assay; assay type: cell-based, Shigella flexneri; conditions: for pIC50: INCACO2CELLS, Caco-2
Protocol: The inhibition of Shigella propagation in Caco2 cells assay was performed following the previously described protocol based on microcarrier cell culture which models the in vivo three-dimensional environment with the minor modifications. This protocol will be described in a forthcoming paper (V. Phat, A. Lim, S. Lozano, C. De Cozar-Gallardo, M. Castellote-Alvaro, J. Rodrigues, A. Villegas, D. Alvarez, E. Alvaro, L. Ballell-Pages, S. Baker, unpublished data) and is available upon request (see Data Availability Statement).

[2] = target: T1, Nano-Luc reporter (S. flexneri 2457T-nl reporter strain) (Oplophorus gracilirostris, UniProt Q9GV45, A31E/A60N/A81I/F95D/I117V/K70R/L54V/L99Q/M102K/N193R/P142E/Q151K/Q38R/Q45L/V71I/Y165I); assay: Nano-Luc inhibition (assay readout interference); assay type: cell-based
T1 construct: expressed in transfected cells; host or cells: Shigella flexneri serotype 2a strain 2457T carrying plasmid pMK-RQ-nl

[3] = system: S. flexneri 2457T-nl in THP-1 macrophages; assay: Shigella intra-macrophage survival dose-response assay (luciferase readout)
Protocol: The experimental protocol for the Shigella intra-macrophage survival screen is divided into three time segments: (i) THP-1 macrophage and bacteria preparation 1 day prior to compound screen assay, (ii) THP-1 differentiation, invasion, gentamicin treatment, dispensing of infected cells onto plates pre-dispensed with compounds to be tested, and the beginning of their incubation performed on the same day, and (iii) dispensing of the Nano-Luc substrate and luminescence readout after 18 hours of incubation.
The assay was adapted to the 1,536-well plate format for the HTS. A multidrop dispenser with the small tube metal tip cassette (Thermo Fisher Scientific) was used to seed 5 µL of the cell suspension to plates pre-dispensed with compounds to be tested that were transferred to RT 1–1.5 hours before adding infected cells. Plates were incubated for 18 hours at 37°C in a humidified atmosphere with 5% CO2.
After incubation, the bacterial count is quantified by luminescence readout. Luminescence correlated linearly with the number of viable bacteria. The Nano-Luc substrate solution was prepared according to the manufacturer (Nano-Glo Luciferase Assay System, Promega, Madison, WI, USA). A multidrop dispenser with the small tube metal tip cassette (Thermo Fisher Scientific) was used to dispense 2 µL of substrate per well, and plates were stored in the dark prior to reading. Luminescence was read (0.1 s/well) on a microplate reader (EnVision, PerkinElmer) after 30 minutes of incubation at RT.
The dose-response assay was performed following the above protocol using different plate formats.

[4] = system: S. flexneri 2457T; assay: Shigella antibacterial assay (resazurin); assay type: cell-based, Shigella flexneri; conditions: for MIC90: S. flexneri 2457T, resazurin assay
Protocol: An antibacterial assay against S. flexneri 2457T was performed according to the previously described protocol ([40]). The antibacterial assay was used to determine the MIC90 values of potential inhibitors for S. flexneri 2457T. The assay measures the effect of compounds on the bacteria using resazurin (Thermo Fisher Scientific) measurement as surrogate of bacterial viability. Briefly, to perform the extracellular dose responses, compounds were pre-dispensed in DMSO, and threefold serial dilutions were made for each compound into 384-well plate format. Bacterial inoculum for the assay was prepared in MH medium, resulting at 1 × 10^6 CFU/mL, and 5 µL of this culture was dispensed per well. Then, plates were incubated at 37°C overnight. The resazurin reagent (10 µL) was added to each well followed by an incubation at RT and darkness for 3 hours. The fluorescence intensity of the assay plates was measured using microplate reader (EnVision, PerkinElmer). For MIC90 determination, data were normalized by using DMSO at a final concentration of 0.5% as the negative control (100% bacterial growth) and moxifloxacin at a final concentration of 20 µM as the positive control (0% bacterial growth). The experiment was done in duplicate.

[5] = Shigella flexneri, THP-1, 18 h, read-out: Survival inhibition IC50
[6] = read-out: Nano-Luc interference IC50, S. flexneri 2457T-nl reporter strain in MH medium, 18 hours
[7] = Shigella flexneri, THP-1, read-out: Shigella Intra-macrophage Survival IC50

T1 sequence (Q9GV45 28-196 with tags or gaps with the stated changes limits assumed): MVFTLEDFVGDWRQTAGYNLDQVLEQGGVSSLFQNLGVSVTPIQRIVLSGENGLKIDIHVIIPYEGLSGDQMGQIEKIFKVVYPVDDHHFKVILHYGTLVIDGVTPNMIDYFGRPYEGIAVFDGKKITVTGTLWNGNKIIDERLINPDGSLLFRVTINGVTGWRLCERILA

Compound | pIC50 [1] | pIC50 [2] | pIC50 [3, 5] | also measured
c1ccc(-n2nnnc2-c2cnoc2-c2cccs2)cc1 [PT-297–03] | 5.52 | 5.09 | 6.30 | 
N#Cc1ccc(C(=O)Nc2cccc(-c3ccc(CN4CCNCC4)cc3)c2)cc1 [AN-30-01] |  |  | 6.06 | Propagation in Caco2 IC50 [1]: Inactive
COc1ccc(N2CCN(c3nc4ncccc4o3)CC2)cc1 [Compound S-281-01] | 4.62 | 4.55 | 6.19 | 
COc1ccc(-n2cc(C(=O)c3cc(C)ccc3O)cc(C#N)c2=O)cc1 [AN1-152-07] | 6.70 | 4.57 | 6.68 | 
N#Cc1cc(C(=O)c2ccccc2O)cn(C2CCCC2)c1=O [AN1-152-03] | 5.77 | 4.21 | 6.32 | 
O=S(=O)(Nc1ccccc1C(F)(F)F)c1ccc(-c2ccc(F)cc2)s1 [DS1-32-05] | 5.51 | 5.52 | 6.25 | 
Cc1ccc(-n2cc(C(=O)c3cc(F)ccc3O)cc(C#N)c2=O)cc1 [AN1-152-08] | 5.72 |  | 6.37 | 
CN(C(=O)Cc1cccs1)C1(C(=O)NC2CCCCC2)CCCCC1 [Compound S-185-01] | 5.37 |  | 6.15 | pIC50 [2, 6]: 5.42
CC[C@H]1OC(=O)[C@H](C)[C@@H](O[C@H]2C[C@@](C)(OC)[C@@H](O)[C@H](C)O2)[C@H](C)[C@@H](O[C@@H]2O[C@H](C)C[C@H](N(C)C)[C@H]2O)[C@](C)(O)C[C@@H](C)CN(C)[C@H](C)[C@@H](O)[C@]1(C)O [Azithromycin, azithromycin, reference compound] |  |  |  | MIC90 ([4]; Shigella flexneri): 10 µM (≈ 7.49 µg/mL); pIC50 [3, 7]: 7.10
Cc1ncccc1Oc1ncc(Cl)cc1S(=O)(=O)Nc1cccc(Cl)c1 [DS-90-01] | 5.00 | 4.19 | 5.92 | 
COc1ccc(-n2cc(C(=O)c3cc(Cl)ccc3O)cc(C#N)c2=O)cc1 [AN1-152-06] | 5.41 |  | 6.31 | 
COc1ccc(S(=O)(=O)Nc2ccc(Cl)cc2F)cc1[N+](=O)[O-] [DS2-187-03] | 5.52 |  | 6.15 | 
Fc1ccc(-c2oncc2-c2nnnn2-c2ccccc2)cc1F [PT-297-02] | 5.92 | 5.31 | 6.57 | 
CCc1cccc(CC)c1NC(=O)c1c(-c2ccccc2)noc1C [Compound S-53-01] | 5.82 | 5.92 | 6.77 | 
Cc1ccc(C2=NN(C3=NC(=O)C(CC(=O)Nc4ccccc4)S3)C(c3ccccc3)C2)cc1 (stereo not drawn) [Compound S-10-01] | 6.30 | 4.96 | 6.39 | 
COc1ccc(CN(C)S(=O)(=O)c2nnc(NC(=O)c3cccc(Cl)c3)s2)cc1OC [DS-299-02] | 5.60 | 5.34 | 6.10 | 
O=S(=O)(Nc1ccc(F)cc1C(F)(F)F)c1ccc(-c2cccs2)s1 [DS1-32-04] | 5.42 |  | 6.39 | pIC50 [2, 6]: 5.51
Cc1cc(CNC(=O)CCc2c(C)nc3cc(O)nn3c2C)no1 [Compound S-86-01] | 6.00 | 5.77 | 6.57 | 
CCN(C(=O)Cn1c(-c2nonc2N)nc2ccccc21)c1ccccc1 [Compound S-134-02] | 5.31 | 5.29 | 6.17 | 
COc1ccc(-n2nnnc2SC(C(=O)N(C)C)c2ccccc2)cc1 (stereo not drawn) [Compound S-28-01] | 5.35 | 5.30 | 6.00 | 
Cc1c(-c2cccs2)[nH]c2c(C#N)cnn2c1=O [AN-5-02] | 5.68 | 6.11 | 7.05 | 
Cc1ccc(-n2cc(C(=O)c3cc(Cl)ccc3O)cc(C#N)c2=O)cc1 [AN1-152-04] | 5.21 |  | 6.24 | 

Compound | pIC50 [1] | pIC50 [2] | pIC50 [3, 5] | also measured
Cc1noc2ncn(Cc3nc(Cc4ccccc4F)no3)c(=O)c12 [Compound S-82-01] | 4.72 | 4.72 | 6.00 | 
Cc1cccc(-n2cc(C(=O)c3cc(F)ccc3O)cc(C#N)c2=O)c1 [AN1-152-09] | 5.00 |  | 6.14 | 
CO/N=C(\C(=O)N[C@@H]1C(=O)N2C(C(=O)O)=C(CSc3nc(=O)c(=O)[nH]n3C)CS[C@H]12)c1csc(N)n1 [Ceftriaxone, ceftriaxone, reference compound] |  |  |  | MIC90 ([4]; Shigella flexneri): 0.1 µM (≈ 0.0555 µg/mL); pIC50 [3, 7]: 8.00
Cc1ccc(-n2cc(C(=O)c3cc(C)ccc3O)cc(C#N)c2=O)cc1 [AN1-152-05] | 6.52 | 4.92 | 7.00 | 
O=C(O)c1cn(C2CC2)c2cc(N3CCNCC3)c(F)cc2c1=O [Ciprofloxacin, ciprofloxacin, reference compound] |  |  |  | MIC90 ([4]; Shigella flexneri): 0.07 µM (≈ 0.0232 µg/mL); pIC50 [3, 7]: 8.15
Fc1ccc(-c2oncc2-c2nnnn2-c2ccccc2)c(F)c1 [PT-297-01] | 5.68 | 5.08 | 6.37 | 
Cc1ccccc1-c1c(C#N)c(N)nc(SCc2ccccc2)c1C#N [AN1-77-01] | 4.85 |  | 6.10 | 
N#Cc1ccc(C(=O)Nc2nnc(-c3ccncc3)s2)cc1 [AN2-45-02] | 4.85 |  | 6.05 | 
O=C(CN1CCc2ccccc2C1)Nc1cnccc1C(=O)O [Compound S-136-01] | 5.51 | 5.52 | 6.21 | 
COc1ccc(CCNC(=O)c2nc(O)c3nnn(Cc4ccc(F)cc4)c3n2)cc1OC [Compound S-169-01] | 4.68 | 4.92 | 6.23 | 
Cc1ccc(NC(=O)CC2SC(N3N=C(c4cccs4)CC3c3ccccc3)=NC2=O)cc1 (stereo not drawn) [Compound S-10-03] | 5.96 |  | 6.21 | 
COc1ccc2nc(NS(=O)(=O)c3cccc(C#N)c3)sc2c1 [DS-64-06] | 5.51 | 5.02 | 6.36 | 
CC(NC(=O)NC(C)c1cccs1)c1ccc2c(c1)OCCO2 (stereo not drawn) [Compound S-378-01] | 5.18 |  | 6.00 | 
COc1ccc(-c2ccn(CC[C@](C)(C(=O)NO)S(C)(=O)=O)c(=O)c2)c(F)c1 [PF-5081090, reference compound] |  |  |  | MIC90 [4]: 0.2 µM (≈ 0.0825 µg/mL); pIC50 ([3]; read-out: Shigella Intra-macrophage Survival IC50, commercially available antibiotics, luciferase assay): 7.22
COc1c(N2C[C@@H]3CCCN[C@@H]3C2)c(F)cc2c(=O)c(C(=O)O)cn(C3CC3)c12 [moxifloxacin, reference compound] |  |  |  | bacterial survival ([3]; 20 µM, macrophage permeable positive control): no detectable bacterial survival
CC(C)c1noc2ncc(C(=O)c3ccccc3O)cc12 [Compound S-316-01] | 5.72 |  | 5.89 | 
CC(C)(C)C(=O)OCOC(=O)[C@@H]1N2C(=O)[C@@H](/N=C/N3CCCCCC3)[C@H]2SC1(C)C [Pivmecillinam, pivmecillinam] |  |  |  | MIC relative to survival IC50 (times higher) ([4]; MIC vs intra-macrophage survival IC50): very similar; MIC90 ([4]; Shigella flexneri): 1 µM (≈ 0.44 µg/mL); pIC50 [3, 7]: 6.05
N#Cc1cc(C(=O)c2ccccc2O)cn(-c2ccc(Cl)cc2)c1=O [AN1-152-02] | 6.52 | 5.43 | 8.41 | 
Cc1nn(-c2ccccc2)c(C)c1S(=O)(=O)Nc1nc2c(s1)CCCC2 [DS-61-01] | 5.64 | 5.66 | 6.30 | 
N#Cc1cc(C(=O)c2ccccc2O)cn(-c2ccccn2)c1=O [AN1-152-01] | 5.57 | 4.60 | 6.51 | 
CCOc1ccc(-n2cc(C(=O)c3cc(F)ccc3O)cc(C#N)c2=O)cc1 [AN1-152-10] |  | 4.30 | 6.62 | Propagation in Caco2 IC50 [1]: Inactive
CC1(C)S[C@@H]2[C@H](/N=C/N3CCCCCC3)C(=O)N2[C@H]1C(=O)O [Mecillinam, mecillinam, reference compound] |  |  |  | MIC90 ([4]; Shigella flexneri): 0.2 µM (≈ 0.0651 µg/mL); pIC50 [3, 7]: 6.15
